From patent publication US20170281651A1, “CONCOMITANT ADMINISTRATION OF GLUCOCORTICOID RECEPTOR MODULATORS AND CYP3A OR STEROIDOGENESIS INHIBITORS” (Corcept Therapeutics, Inc., priority 2017, published 2017)
Several values for one entry are separate records, joined by “and”; a condition that tells them apart may be missing. Equal values may be shown once.

Experiments:
Type in all cases: in vivo, human
[1] = Example 1: effect of oral ketoconazole (400 mg OD or 200 mg BID) on plasma pharmacokinetics of a 300 mg single dose of mifepristone, fasted; settings: for Cmax / AUC(0-t) / half-life / Tmax: male, human, plasma, oral; for AUC(0-t): read-out: AUCt (AUC0-24 hours, mean); for half-life: read-out: T1/2 (mean) (converted); for Tmax: read-out: Tmax (median)
Source text: This study was an open-label study in healthy male subjects.
Healthy male volunteers between the ages of 18 to 45 years of age with a body mass index (BMI) ranging between 19 and 32 kg/m2 and a weight of at least 60 kg (132 lbs) were enrolled. Subjects had no clinically significant abnormal findings on the physical examination, ECG, blood pressure, heart rate, medical history, or clinical laboratory results during screening. The QTc interval at screening was less than 450 msec.
(§1) In cohort 1, six subjects received ketoconazole 400 mg OD for 14 days.
Subjects remained in the clinic on Days 2 and 3 to receive 400 mg OD oral ketoconazole fasted, and for safety evaluation and collection of blood pharmacokinetic (PK) samples. Subjects were discharged from the clinic on Day 4 following administration of 400 mg OD oral ketoconazole fasted, and returned to the clinic the mornings of Days 5 through 13 to receive 400 mg OD oral ketoconazole fasted.
(§2) In cohort 2, six subjects received ketoconazole 200 mg BID for 14 days. […] All 12 subjects completed the study. Cohort 2 subjects participated in a Screening visit to assess eligibility and a check-in Day (Day −1) during which eligibility was re-confirmed. […] The evening of Day 1, subjects received 200 mg oral ketoconazole. Subjects remained in the clinic on Days 2, 3 and 4 to receive 200 mg BID oral ketoconazole, and for safety evaluation and collection of blood pharmacokinetic (PK) samples. Subjects were discharged from the clinic on Day 4 following evening administration of 200 mg oral ketoconazole, and returned to the clinic the morning and evening of Days 5 through 13 to receive 200 mg BID oral ketoconazole. Morning doses of ketoconazole on Days 0-13 were administered in the fasted state.
(§3) Subjects in both cohorts returned to the study center on Day 15 for safety monitoring, and completion of the Termination Visit procedures, followed by discharge from the study. Safety was assessed by spontaneously reported adverse events, physical examinations, and routine clinical laboratory tests. To the extent possible, any adverse events deemed study drug-related and that were ongoing at the time of discharge from the study were followed-up to resolution or until a determination is made that the unresolved event was stable.
Descriptive statistics (count, mean, median, standard deviation, minimum, maximum, and % coefficient of variation) were provided. […] Comparisons with previous study data were made.

[2] = Example 1: safety (adverse events, laboratory tests, ECG)
Method: as §1, §2, §3

[3] = Example 2: effect of a 400 mg single dose of ketoconazole on PK of an 8-day regimen of 300 mg or 600 mg OD mifepristone, moderate fat breakfast; settings: for Cmax / AUC(0-t) / Tmax / half-life: male, human, plasma, oral; for AUC(0-t): read-out: AUCt (AUC0-24 hours, mean); for Tmax: read-out: Tmax (median); for half-life: read-out: T1/2 (mean) (converted)
Method: (§4) This was an open-label study in healthy male subjects. […] The 400 mg single dose of ketoconazole was given to all subjects on day 8.
METHODOLOGY: Twelve subjects were enrolled, six in Cohort 1 and 6 in Cohort 2.
Subjects were discharged on Day 11.
Subjects were discharged on Day 11. Subjects in both cohorts returned to study center on Day 13 for safety monitoring, collection of the 120-hour PK draw, and completion of the Termination Visit procedures, followed by discharge from the study. To the extent possible, any adverse events deemed study drug-related and that were ongoing at the time of discharge from the study were followed-up to resolution or until a determination was made that the unresolved event was stable.
DIAGNOSIS AND MAIN […] FOR INCLUSION: Healthy male volunteers between the ages of 18 to 45 years of age with a body mass index (BMI) ranging between 19 and 32 kg/m2 and a weight of at least 60 kg (132 lbs) were enrolled. Subjects had no clinically significant abnormal findings on the physical examination, ECG, blood pressure, heart rate, medical history, or clinical laboratory results during screening. The QTc interval at screening was less than 450 msec.
DURATION OF TREATMENT: Up to a total of 28 days, including up to 2 weeks screening, dosing on Days 1-8, safety observation, and PK sample collection through Day 13.
Additionally, comparisons were made between the PK results of cohort 1 and 2. Pharmacokinetic parameters Cmax, T1/2 and total AUC were calculated for plasma concentrations of ketoconazole following the single dose on Day 8. Descriptive statistics (count, mean, median, standard deviation, minimum, maximum, and % coefficient of variation) were provided. Ketoconazole concentrations were listed and summarized. GM means of Cmax and total AUC were compared for the single dose in this study to the combined data of reported 400 mg single doses of ketoconazole of healthy subjects from the literature.

[4] = Example 2: safety (adverse events, physical examinations, laboratory tests)
Method: as §4
Safety was assessed by spontaneously reported adverse events, physical examinations, and routine clinical laboratory tests. Adverse event data were tabulated. Physical findings and laboratory test results were listed by subject.

[5] = Example 3: Phase 1 study of ketoconazole 200 mg twice daily with mifepristone 600 mg once daily with food, plasma PK incl. cross-study comparison
[6] = C2/C1 (Keto 200 mg BID vs 400 mg OD)
[7] = MIFE 300 mg single dose fasted + Keto 200 mg BID (Cohort 2)
[8] = MIFE 300 mg single dose fasted + Keto 400 mg OD (Cohort 1)
[9] = mifepristone 300 mg single dose with ketoconazole for 14 days
[10] = C1 Day 8/Day 7 (300 mg/d, with vs without 400 mg Keto)
[11] = C2 Day 8/Day 7 (600 mg/d, with vs without 400 mg Keto)
[12] = Cohort 1 (300 mg OD), Day 8 with 400 mg ketoconazole relative to Day 7 without
[13] = Cohort 2 (600 mg OD), Day 8 with 400 mg ketoconazole vs Day 7
[14] = Day 7 C2/C1 (600 vs 300 mg/d, no ketoconazole)
[15] = Day 8 C2/C1 (600 vs 300 mg/d, with 400 mg Keto)
[16] = Day 8 in the presence of 400 mg ketoconazole
[17] = 300 mg/d, MIFE 300 mg/d, C1 Day 7, no ketoconazole
[18] = 600 mg/d, MIFE 600 mg/d, C2 Day 7, no ketoconazole
[19] = MIFE 300 mg/d, C1 Day 8, + 400 mg Keto single dose
[20] = MIFE 600 mg/d, C2 Day 8, + 400 mg Keto single dose
[21] = Test: Day 17 600 mg mifepristone OD + 200 mg Ketoconazole BID, Reference: Day 12 600 mg mifepristone OD
[22] = Test: Present Study Day 17 600 mg mifepristone OD + 200 mg Ketoconazole BID, Reference: Historic Study Day 7 1200 mg mifepristone OD alone, after 34% fat meal

CC#C[C@]1(O)CC[C@H]2[C@@H]3CCC4=CC(=O)CCC4=C3[C@@H](c3ccc(N(C)C)cc3)C[C@@]21C [mifepristone, 11β-(4-dimethylaminophenyl)-17β-hydroxy-17α-(1-propynyl)-estra-4,9-dien-3-one]
Mean Ratio AUCtotal (AUCinf, geometric mean ratio) [1, 6]: 1.05 | Mean Ratio Cmax (geometric mean ratio) [1, 6]: 1.15 | Terminal half-life Cohort 2 versus Cohort 1 ([1]; Keto 200 mg BID vs 400 mg OD): approximately the same | Tmax Cohort 2 versus Cohort 1 ([1]; Keto 200 mg BID vs 400 mg OD): shorter | AUCtot (AUCtotal, mean) [1, 7]: 130925 ng·h/mL | AUCtot (AUCtotal, mean) [1, 8]: 116939 ng·h/mL | Cmax [1, 7]: 4140 ng/mL | AUC(0-t) [1, 7]: 40600 ng·h/mL | half-life [1, 7]: 37.4 h | Tmax [1, 7]: 1 h | Cmax [1, 8]: 3400 ng/mL | AUC(0-t) [1, 8]: 38100 ng·h/mL | half-life [1, 8]: 37.1 h | Tmax [1, 8]: 2 h | safety and tolerability ([2]; 300 mg single-dose fasted with ketoconazole 400 mg OD or 200 mg BID for 14 days, healthy volunteers): safe and well tolerated | subjects with at least one treatment emergent adverse event (TEAE) ([2]; 12 subjects, mifepristone 300 mg single dose with ketoconazole for 14 days): 25% | changes in ECG parameters ([2]; mifepristone 300 mg single dose with ketoconazole): No clinically significant changes | SAE or AE resulting in discontinuation [2, 9]: No subject experienced a serious adverse effect (SAE), or an adverse event (AE) that resulted in discontinuation | TEAEs considered by the investigator to be related to the drug [2, 9]: No TEAE | Mean Ratio AUCt [3, 10]: 1.25 | Mean Ratio Cmax [3, 10]: 1.19 | Mean Ratio AUCt [3, 11]: 1.28 | Mean Ratio Cmax [3, 11]: 1.39 | increase in AUC0-24 [3, 12]: 25% | increase in Cmax [3, 12]: 20% | increase in AUC0-24 [3, 13]: 28% | increase in Cmax [3, 13]: 39% | Mean Ratio AUCt [3, 14]: 1.48 | Mean Ratio Cmax [3, 14]: 1.42 | AUC0-24 greater at 600 mg OD than at 300 mg OD ([3]; Day 7 without ketoconazole): 48% | Cmax greater at 600 mg OD than at 300 mg OD ([3]; Day 7 without ketoconazole): 42% | Mean Ratio AUCt [3, 15]: 1.52 | Mean Ratio Cmax [3, 15]: 1.65 | AUC0-24 greater at 600 mg OD than at 300 mg OD [3, 16]: 52% | Cmax greater at 600 mg OD than at 300 mg OD [3, 16]: 65% | half-life greater at 600 mg OD than at 300 mg OD [3, 16]: 13% | Cmax [3, 17]: 2700 ng/mL | AUC(0-t) [3, 17]: 37700 ng·h/mL | Tmax [3, 17]: 3 h | Cmax [3, 18]: 3820 ng/mL | AUC(0-t) [3, 18]: 54200 ng·h/mL | Tmax [3, 18]: 4 h | Cmax [3, 19]: 3240 ng/mL | AUC(0-t) [3, 19]: 47400 ng·h/mL | half-life [3, 19]: 84.9 h | Tmax [3, 19]: 2.1 h | Cmax [3, 20]: 5260 ng/mL | AUC(0-t) [3, 20]: 69100 ng·h/mL | half-life [3, 20]: 96.2 h | Tmax [3, 20]: 4 h | TEAEs considered possibly or probably related to administration ([4]; four subjects in Cohort 2 (600 mg)): dizziness, nausea, vomiting, dry mouth, and rash | SAE ([4]; mifepristone 300 or 600 mg OD 8 days + 400 mg ketoconazole Day 8): No subject experienced an SAE | subjects with at least 1 TEAE ([4]; twelve subjects, mifepristone 300 or 600 mg OD 8 days + 400 mg ketoconazole Day 8): 50% | exposure as percent of that following the highest labeled dose (1200 mg daily) ([5]; 600 mg mifepristone once daily with 200 mg ketoconazole twice daily): approximately 85% | effect of ketoconazole on exposure (90% CI vs standard 80:125 interval) ([5]; Day 17 vs Day 12): increased | difference of time 0 (pre-dose) plasma concentration ([5]; Day 17 vs Day 12, FIG. 2): ~500 ng/mL | concentrations on Day 17 compared with Day 12 ([5]; Day 17 with 200 mg ketoconazole twice daily, Day 12 mifepristone alone): higher | AUC0-24 Ratio % Test/Reference (geometric mean ratio) [5, 21]: 138.01% | Cmax Ratio % Test/Reference (geometric mean ratio) [5, 21]: 127.59% | AUC0-24 Ratio % Test/Ref (cross-study, geometric mean ratio) [5, 22]: 87.27% and 87% | Cmax Ratio % Test/Ref (cross-study, geometric mean ratio) [5, 22]: 84.64% | AUC0-24 Ratio % Test/Ref (cross-study, geometric mean ratio) ([5]; Test: Present Study Day 17 600 mg mifepristone OD + 200 mg Ketoconazole BID, Reference: Historic Study Day 7 1200 mg mifepristone OD alone, after 34% fat meal, listed as Mifepristone): 87.27% | exposure less than that of 1200 mg mifepristone in the absence of ketoconazole ([5]; mifepristone 600 mg co-administered with ketoconazole): 13-15%
